{"source": "patent US11596716B2", "about": "“Compounds and matrices for use in bone growth and repair” (Human BioMolecular Research Institute, priority 2013, dated 2023)", "key": {"hMSCs": {"test_system": "hMSCs", "assay": "qPCR of target gene mRNA expression in hMSCs", "assay_type": "cell-based, human", "conditions": "hMSCs, comparison with compound 3 and calcium phosphate ceramic", "description": "qPCR detection of osteogenic markers: Cells were cultured with compound in the presence or absence of matrix as described above, but using 96-well plate format. Total RNA was extracted from cells (as above) using Trizol. cDNA was made using 750 ng of total RNA with Bio-Rad iscript kit and was diluted 20-fold before being used for qPCR. qPCR was conducted under the following conditions: 95° C., 2 min; 95° C., 10 s and 60° C., 45 s for 40 cycles; 60° C. for 71 cycles for melt curve. qPCR results were analyzed by the ΔΔCt method. 18s rRNA was used as an internal standard. This protocol was applied to hMSC and E15 cells.\nRunx2 and BMP-2 are osteogenic markers; Axin2, Wnt3a, and Sox 9 are Wnt-inducible gene markers.\nThe assay for mRNA expression followed the same procedure with hMSCs as described for C2C12 cells (Example 7)."}, "C2C12 cells": {"test_system": "C2C12 cells", "assay": "Alkaline Phosphatase (ALP) functional activity assay in C2C12 cells", "assay_type": "cell-based, Mouse", "conditions": "normalized to DMSO treatment; for activation at 0.5 µM: Mus musculus, C2C12, 144 h", "description": "Alkaline Phosphatase (ALP) Functional Activity Assay: C2C12 cells were plated into 12-well plates with 7,000 cells/well in 1 mL growth media. […] 1, 2, 3, or 4 in 0.1% DMSO was added (500 nM). Half the media was exchanged with fresh media containing compound every 48 hrs. After 6 days, media was removed, ALP Lysis Buffer (10 mM Tris-HCl pH 8.0, 1 mM MgCl2, and 1% Triton X100) added, and cell lysate obtained (10 min incubation at RT) by centrifugation (5 min at 3500× g at 4° C.). Para-nitrophenol phosphate (pNPP) (2 mg/mL) was incubated with 50 μl cell lysate (10 mins, 37° C.). After addition of […] 0.02 N NaOH, absorbance OD405 was measured. Protein concentration was determined by Bradford protein assay. Results of ALP activity were plotted as nM pNP hydrolyzed/mg total protein. After normalizing control samples (i.e., DMSO-treated samples) to one-fold, the fold-changes were plotted to indicate the relative ALP activity. […] This protocol was applied to hMSC and E15 cells as well."}, "Wnt transcription": {"test_system": "Wnt transcription", "assay": "WNT transcriptional reporter assay (Super(8×)TOPflash luciferase, HEK293T cells)", "assay_type": "cell-based", "conditions": "Wnt3A-expressing vector, 20 hrs, relative to cells treated with DMSO alone, read-out: Wnt transcription potency", "description": "Commercially available Super(8×)TOPflash vector driven by a (7×) TCF-firefly luciferase response element was transiently transfected into HEK293T cells, together with a TK-driven Renilla luciferase plasmid as an internal control to normalize the luminescence signal and a Wnt3A-expressing vector as the source of pathway activation. HEK293T cells were transfected with plasmids in DMEM plus 10% fetal bovine serum (FBS) for 8 hr, replated to 96-well plates in DMEM plus 10% FBS followed by treatment with compounds (1.6 nM to 5 M) (DMSO final concentration is 0.5%) for 20 hrs. Firefly and Renilla luciferase activities were measured and normalized by the Renilla luciferase values."}, "[1]": {"conditions": "compounds of Formula VI, absence of matrix"}, "[2]": {"conditions": "compounds of Formula VI, presence of calcium phosphate matrix"}, "[3]": {"conditions": "compounds of Formula II or IV, absence of matrix"}, "[4]": {"conditions": "compounds of Formula II or IV, presence of calcium phosphate matrix"}}, "note": "pEC50: −log10 of the molar value. Like-named read-outs stand apart in the source and are kept apart here.", "data": [{"compound": "COc1cc(C=CC(=O)C=C(O)C=Cc2ccc(O)c(OC)c2)ccc1O", "note": "[Compound 38, 1,7-Bis(4-hydroxy-3-methoxyphenyl)-5-hydroxy-hepta-1,4,6-trien-3-one]", "values": [{"measurement": "robust mRNA up-regulation of VDR or ALP", "setting": "hMSCs", "result": "not observed"}, {"measurement": "activation at 0.5 µM", "setting": "C2C12 cells; [1]", "result": "5 to 50", "unit": "%"}, {"measurement": "activation at 0.5 µM", "setting": "C2C12 cells; [2]", "result": "> 100", "unit": "%"}]}, {"compound": "Cc1nc2c(-c3ccccc3)cnn2c(N2CCN(C)CC2)c1C", "note": "[Compound 31, 3-phenyl-5,6-dimethyl-7-(N-methyl-N-piperazinyl)-pyrazolo[1,5-a]pyrimidine]", "values": [{"measurement": "ALP activity −matrix", "setting": "C2C12 cells; [3]", "result": "+ (5-50%)"}, {"measurement": "ALP activity +matrix", "setting": "C2C12 cells; [4]", "result": "+ (5-50%)"}, {"measurement": "pEC50", "setting": "Wnt transcription", "result": "7.40 to 7.82"}]}, {"compound": "Cc1ccc(N(C(=O)c2ccccc2)[C@H]2C[C@H](C)N(C(=O)c3ccccc3)c3ccc(C)cc32)cc1", "note": "(relative stereo) [Compound 28, trans-1-benzoyl-2,6-dimethyl-N-(p-methylphenyl)-N-benzoyl-1,2,3,4-tetrahydroquinolin-4-amine]", "values": [{"measurement": "activation at 0.5 µM", "setting": "C2C12 cells; [3]", "result": "< 5", "unit": "%"}, {"measurement": "activation at 0.5 µM", "setting": "C2C12 cells; [4]", "result": "< 5", "unit": "%"}]}, {"compound": "CN(C)c1ccc(C=CC(=O)C=C(O)C=Cc2ccc(N(C)C)cc2)cc1", "note": "[Compound 47, 1,7-Bis-(4-dimethylaminophenyl)-5-hydroxy-hepta-1,4,6-trien-3-one]", "values": [{"measurement": "activation at 0.5 µM", "setting": "C2C12 cells; [1]", "result": "> 100", "unit": "%"}, {"measurement": "activation at 0.5 µM", "setting": "C2C12 cells; [2]", "result": "< 5", "unit": "%"}]}, {"compound": "COc1ccc(C=CC(=O)C=C(O)C=Cc2ccc(OC)c(O)c2)cc1O", "note": "[Compound 48, 5-Hydroxy-1,7-bis-(3-hydroxy-4-methoxyphenyl)-hepta-1,4,6-trien-3-one]", "values": [{"measurement": "activation at 0.5 µM", "setting": "C2C12 cells; [1]", "result": "> 100", "unit": "%"}, {"measurement": "activation at 0.5 µM", "setting": "C2C12 cells; [2]", "result": "< 5", "unit": "%"}]}, {"compound": "C[C@H]1C[C@@H](Nc2ccccc2)c2ccccc2N1", "note": "(relative stereo) [Compound 7, cis-2-methyl-N-phenyl-1,2,3,4-tetrahydroquinolin-4-amine]", "values": [{"measurement": "activation at 0.5 µM", "setting": "C2C12 cells; [3]", "result": "5 to 50", "unit": "%"}, {"measurement": "activation at 0.5 µM", "setting": "C2C12 cells; [4]", "result": "5 to 50", "unit": "%"}]}, {"compound": "COc1cc(O)ccc1C=CC(=O)C=C(O)C=Cc1ccc(O)cc1OC", "note": "[Compound 49, 5-Hydroxy-1,7-bis-(4-hydroxy-2-methoxyphenyl)-hepta-1,4,6-trien-3-one]", "values": [{"measurement": "activation at 0.5 µM", "setting": "C2C12 cells; [1]", "result": "50 to 100", "unit": "%"}, {"measurement": "activation at 0.5 µM", "setting": "C2C12 cells; [2]", "result": "< 5", "unit": "%"}]}, {"compound": "COc1cc(C=CC(=O)C=C(O)C=Cc2ccc(OC(=O)[C@@H](N)C(C)C)c(OC)c2)ccc1OC(=O)[C@@H](N)C(C)C", "note": "[Compound 71, (2S,2′S)—O,O′-(3-hydroxy-5-oxohepta-1,3,6-triene-1,7-diyl)bis(2-methoxy-4,1-phenylene) bis(2-amino-3-methylbutanoate)]", "values": [{"measurement": "ALP activity −matrix", "setting": "C2C12 cells; [1]", "result": "+ (5-50%)"}, {"measurement": "ALP activity +matrix", "setting": "C2C12 cells; [2]", "result": "+ (5-50%)"}]}, {"compound": "Cc1nc2c(-c3ccccc3)cnn2c(NCCC(C)C)c1C", "note": "[Compound 32, 3-phenyl-5,6-dimethyl-7-[N-(3-methylbutyl)amino]-pyrazolo[1,5-a]pyrimidine]", "values": [{"measurement": "activation at 0.5 µM", "setting": "C2C12 cells; [3]", "result": "< 5", "unit": "%"}, {"measurement": "activation at 0.5 µM", "setting": "C2C12 cells; [4]", "result": "< 5", "unit": "%"}, {"measurement": "pEC50", "setting": "Wnt transcription; Homo sapiens, HEK-293T", "result": "< 7.40"}]}, {"compound": "Cc1ccc(N[C@@H]2C[C@H](C)Nc3ccc(C)cc32)cc1", "note": "(relative stereo) [Compound 5, cis-2,6-dimethyl-N-(p-methylphenyl)-1,2,3,4-tetrahydroquinolin-4-amine]", "values": [{"measurement": "activation at 0.5 µM", "setting": "C2C12 cells; [3]", "result": "5 to 50", "unit": "%"}, {"measurement": "activation at 0.5 µM", "setting": "C2C12 cells; [4]", "result": "5 to 50", "unit": "%"}]}, {"compound": "COc1ccc(N[C@@H]2C[C@H](C)Nc3ccc(OC)cc32)cc1", "note": "(relative stereo) [Compound 11, cis-2-methyl-6-methoxy-N-(p-methoxyphenyl)-1,2,3,4-tetrahydroquinolin-4-amine]", "values": [{"measurement": "activation at 0.5 µM", "setting": "C2C12 cells; [3]", "result": "< 5", "unit": "%"}, {"measurement": "activation at 0.5 µM", "setting": "C2C12 cells; [4]", "result": "50 to 100", "unit": "%"}]}, {"compound": "Cc1ccc(N[C@H]2C[C@H](C)N(C(=O)C(C)C)c3ccc(C)cc32)cc1", "note": "(relative stereo) [Compound 15, trans-1-(2-propylcarbonyl)-2,6-dimethyl-4-(4-methylphenylamino)-1,2,3,4-tetrahydroquinoline]", "values": [{"measurement": "activation at 0.5 µM", "setting": "C2C12 cells; [3]", "result": "< 5", "unit": "%"}, {"measurement": "activation at 0.5 µM", "setting": "C2C12 cells; [4]", "result": "50 to 100", "unit": "%"}]}, {"compound": "COc1ccc(N[C@H]2C[C@H](C)Nc3ccc(OC)cc32)cc1", "note": "(relative stereo) [Compound 12, trans-2-methyl-6-methoxy-N-(p-methoxyphenyl)-1,2,3,4-tetrahydroquinolin-4-amine]", "values": [{"measurement": "activation at 0.5 µM", "setting": "C2C12 cells; [3]", "result": "> 100", "unit": "%"}, {"measurement": "activation at 0.5 µM", "setting": "C2C12 cells; [4]", "result": "5 to 50", "unit": "%"}]}, {"compound": "CC(=O)N1c2ccc(F)cc2[C@H](Nc2ccc(F)cc2)C[C@@H]1C", "note": "(relative stereo) [Compound 21, cis-1-acetyl-2-methyl-6-fluoro-N-(p-fluorophenyl)-1,2,3,4-tetrahydroquinolin-4-amine]", "values": [{"measurement": "activation at 0.5 µM", "setting": "C2C12 cells; [3]", "result": "5 to 50", "unit": "%"}, {"measurement": "activation at 0.5 µM", "setting": "C2C12 cells; [4]", "result": "5 to 50", "unit": "%"}]}, {"compound": "COc1ccc(F)cc1C=CC(=O)C=C(O)C=Cc1cc(F)ccc1OC", "note": "[Compound 53, 1,7-Bis-(5-fluoro-2-methoxyphenyl)-5-Hydroxy-hepta-1,4,6-trien-3-one]", "values": [{"measurement": "activation at 0.5 µM", "setting": "C2C12 cells; [1]", "result": "< 5", "unit": "%"}, {"measurement": "activation at 0.5 µM", "setting": "C2C12 cells; [2]", "result": "< 5", "unit": "%"}]}, {"compound": "cis-1-acetyl-4-(phenylamino)-1,2,3,4-tetrahydroquinoline [Compound 20]", "values": [{"measurement": "ALP activity −matrix", "setting": "C2C12 cells; [3]", "result": "− (<5%)"}, {"measurement": "ALP activity +matrix", "setting": "C2C12 cells; [4]", "result": "++ (50-100%)"}]}, {"compound": "Cc1ccc(N[C@H]2C[C@H](C)N(C(=O)c3ccccc3)c3ccc(C)cc32)cc1", "note": "(relative stereo) [Compound 19, trans-1-benzoyl-2,6-dimethyl-N-(p-methylphenyl)-1,2,3,4-tetrahydroquinolin-4-amine]", "values": [{"measurement": "activation at 0.5 µM", "setting": "C2C12 cells; [3]", "result": "< 5", "unit": "%"}, {"measurement": "activation at 0.5 µM", "setting": "C2C12 cells; [4]", "result": "< 5", "unit": "%"}]}, {"compound": "Cc1ccc(N[C@H]2C[C@H](C)Nc3ccc(C)cc32)cc1", "note": "(relative stereo) [Compound 6, trans-2,6-dimethyl-N-(p-methylphenyl)-1,2,3,4-tetrahydroquinolin-4-amine]", "values": [{"measurement": "activation at 0.5 µM", "setting": "C2C12 cells; [3]", "result": "50 to 100", "unit": "%"}, {"measurement": "activation at 0.5 µM", "setting": "C2C12 cells; [4]", "result": "< 5", "unit": "%"}]}, {"compound": "COc1cc(N(C)C)ccc1C=CC(=O)C1CCCC(=Cc2ccc(N(C)C)cc2OC)C1=O", "note": "(centres unmarked) [Compound 59, 2-(4-N,N-dimethylamino-2-methoxybenzylidene)-6-(3-(4-N,N-dimethylamino-2-methoxyphenyl)acryloyl)cyclohexanone]", "values": [{"measurement": "ALP activity −matrix", "setting": "C2C12 cells; [1]", "result": "− (<5%)"}, {"measurement": "ALP activity +matrix", "setting": "C2C12 cells; [2]", "result": "++ (50-100%)"}]}]}
